Measured values published in publication PMC2673089 (Journal of pharmaceutical sciences, 2008).
Marks after values point to notes of the source that are not given here.

Columns and labels:
[1] = test system: Caco-2 monolayers; assay: Bidirectional transport and verapamil inhibition across Caco-2 monolayers; type: in vitro ADME; details: 0.1 mM, absence of verapamil, mean ± SD (n = 3)
[2] = test system: MDCK-MDR1 monolayers; assay: Bidirectional transport and verapamil inhibition across MDCK-MDR1 monolayers; type: in vitro ADME; details: MDCK-MDR1
[3] = test system: DA uptake; details: read-out: DA Uptake IC50; mean ± SEM; cited from earlier work
[4] = test system: extracellular levels of DA in the nucleus accumbens (NAc); details: cited from earlier work
[5] = test system: Caco-2 monolayers; details: Caco-2 monolayer characterization; cited from earlier work
[6] = test system: MDCK-MDR1 monolayers; details: MDCK-MDR1 monolayer characterization; cited from earlier work
[7] = 0.1 mM, absence of verapamil, mean ± SD (n = 3)

Structure (SMILES): C[N+]1(C)C2CCC1CC(OC(c1ccc(F)cc1)c1ccc(F)cc1)C2 (stereo not drawn) [JHW 025, N-(dimethyl)-3α-[(bis-4′-fluorophenyl)methoxy]tropane, reference compound]
- Papp A-B [1]: <0.34 ^a × 10^−6 cm/s
- Papp B-A [1]: 1.8 ± 0.25 × 10^−6 cm/s
- Efflux Ratio ([2]; 0.1 mM, Papp(B-A)/Papp(A-B)): 1.5
- Papp A-B [2, 7]: 5.00 ± 0.31 × 10^−6 cm/s
- Papp B-A [2, 7]: 7.39 ± 1.17 × 10^−6 cm/s
- Enhancement ratio of A-B transport by verapamil ([2]; verapamil 200 μM): 1.2

Structure (SMILES): CN1[C@@H]2CC[C@H]1C[C@@H](OC(c1ccccc1)c1ccccc1)C2 [BZT, benztropine, reference compound]
- IC50 [3]: 403 ± 115 nM

Structure (SMILES): COC(=O)[C@H]1[C@@H](OC(=O)c2ccccc2)C[C@@H]2CC[C@H]1N2C [cocaine]
- DA increase ([4]; 3 mg/kg i.v., similar microdialysis technique, ref Baumann et al.[41]): six-fold
- DA elevation ([4]; 5 mg/kg i.v., identical stereotaxic coordinates): 10 fold

Structure (SMILES): CC(C)NCC(O)COc1cccc2ccccc12 (centres unmarked) [propranolol]
- Papp of marker compounds [5]: 1.334e-05 cm/s
- Papp of marker compounds [6]: 2.433e-05 cm/s
